# Test results published in ChEMBL document CHEMBL2311446, “Hybrid fluorescent conjugates of COX-2 inhibitors: search for a COX-2 isozyme imaging cancer biomarker” (Bioorg Med Chem Lett, 2013).
# System: not listed separately
# Test: Drug uptake in human HCA-7 cells overexpressing COX2 assessed as fluorescence at 10 uM after 1 hr by confocal laser scanning microscopic analysis
# Format: ADME, cell-based
# Details: hca-7, 1 h; call rule not given here
row,SMILES,Drug uptake
1,CCN(CC)c1ccc2c(-c3ccccc3C(=O)O)c3ccc(=[N+](CC)CC)cc-3oc2c1 [RHODAMINE B],Not Active

# Target: T1, Prostaglandin G/H synthase 1 (Ovis aries, UniProt P05979)
# T1 sequence (P05979 whole entry): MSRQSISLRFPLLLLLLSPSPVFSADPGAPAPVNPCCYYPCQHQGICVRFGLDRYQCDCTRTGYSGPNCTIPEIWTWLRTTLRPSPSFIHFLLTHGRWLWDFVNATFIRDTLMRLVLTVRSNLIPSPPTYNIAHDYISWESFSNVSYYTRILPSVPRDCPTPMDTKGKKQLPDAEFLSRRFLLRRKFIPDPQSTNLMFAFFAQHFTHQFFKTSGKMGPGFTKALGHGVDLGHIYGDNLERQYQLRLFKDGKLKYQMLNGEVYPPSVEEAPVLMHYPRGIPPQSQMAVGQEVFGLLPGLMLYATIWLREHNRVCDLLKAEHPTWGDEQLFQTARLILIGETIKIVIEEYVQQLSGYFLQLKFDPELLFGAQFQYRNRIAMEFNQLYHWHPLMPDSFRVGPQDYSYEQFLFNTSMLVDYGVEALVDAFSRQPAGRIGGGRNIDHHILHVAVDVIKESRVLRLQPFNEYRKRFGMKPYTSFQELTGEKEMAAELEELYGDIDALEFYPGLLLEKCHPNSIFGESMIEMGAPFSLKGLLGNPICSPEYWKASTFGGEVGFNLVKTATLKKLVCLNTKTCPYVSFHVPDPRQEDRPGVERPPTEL
# Test: Inhibition of ovine COX1
# Details: not given
row,SMILES,IC50 [µM]
1,CC(C)Cc1ccc(C(C)C(=O)OCCNS(=O)(=O)c2cccc3c(N(C)C)cccc23)cc1 (stereo unspecified),> 100
2,CC(C)Cc1ccc(C(C)C(=O)OCCn2c3ccccc3c(=O)c3ccccc32)cc1 (stereo unspecified),74.1
3,COc1ccc2cc([C@H](C)C(=O)OCCn3c4ccccc4c(=O)c4ccccc43)ccc2c1,30.3
4,CC(=O)Oc1ccccc1C(=O)OCCn1c2ccccc2c(=O)c2ccccc21,39.4
5,O=c1c2ccccc2n(CCOS(=O)(=O)c2ccc(C(F)(F)F)cc2)c2ccccc12,88.1
6,CC(C)Cc1ccc(C(C)C(=O)n2c3ccccc3c(=O)c3ccccc32)cc1 (stereo unspecified),51.5
7,COc1ccc2cc([C@H](C)C(=O)n3c4ccccc4c(=O)c4ccccc43)ccc2c1,18
8,CN(C)c1cccc2c(S(=O)(=O)NCCNS(=O)(=O)c3ccc(C4=C(c5ccc(Cl)cc5)C(=O)OC4)cc3)cccc12,> 100
9,Cc1ccc(-c2cc(C(F)(F)F)nn2-c2ccc(S(=O)(=O)NCCNS(=O)(=O)c3cccc4c(N(C)C)cccc34)cc2)cc1,> 100
10,CCN(CC)c1ccc2c(c1)Oc1cc(N(CC)CC)ccc1C21c2ccccc2C(=O)N1CCNS(=O)(=O)c1ccc(-n2nc(C(F)(F)F)cc2-c2ccc(C)cc2)cc1,> 100
